According to patent US20120010206A1, “IMIDAZOLOPYRIDINE COMPOUNDS USEFUL FOR THE TREATMENT OF DEGENERATIVE AND INFLAMMATORY DISEASES” (priority 2006, published 2012):
pEC50, pIC50: −log10 of the molar value.

Assays:
[1] = system: MMP1 expression from activated SFs (RASF); test: MMP assay: MMP1 expression (ELISA) by TNF-α-triggered RASFs; assay type: cell-based; details: RASF triggered with TNFα, MMP1 ELISA after 48 hrs, semi-quantitative score
Description: A 384-well format ELISA for measurement of MMP1 is developed. Various primary antibodies are tested, as well as various ELISA protocols. The following protocol is developed and validated to measure MMP1 levels in SF supernatant in 384 well plates: white Lumitrac 600 384 well plates (Greiner) are coated with 2 μg/mL anti-MMP1 antibody MAB1346 (Chemicon). The antibody is diluted in buffer 40 (1.21 g Tris base (Sigma), 0.58 g NaCl (Calbiochem) and 5 mL 10% NaN3 (Sigma) in 1 L milliQ water and adjusted to pH 8.5). After overnight incubation at 4° C., plates are washed with PBS (80 g NaCl, 2 g KCl (Sigma), 11.5 g Na2HPO4.7H2O and 2 g KH2PO4 in 10 L milliQ; pH 7.4) and blocked with 100 μL/well Casein buffer (2% Casein (VWR International) in PBS). Next day, casein buffer is removed from ELISA plates and replaced by 50 μL/well EC buffer (4 g casein, 2.13 g Na2HPO4 (Sigma), 2 g bovine albumin (Sigma), 0.69 g NaH2PO4.H2O (Sigma), 0.5 g CHAPS (Roche), 23.3 g NaCl, 4 mL 0.5 M EDTA pH 8 (Invitrogen), 5 mL 10% NaN3 in 1 L milliQ and adjusted to pH 7.0). 0.25 mM DTT (Sigma) is added to the thawed sample plates. After removal of the EC buffer, 20 μL of sample is transferred to the ELISA plates. After overnight incubation at 4° C. plates are washed twice with PBS and once with PBST (PBS with 0.05% Tween-20 (Sigma)) and incubated with 35 μL/well biotinylated anti-MMP1 antibody solution (R&D). This secondary antibody is diluted in buffer C (0.82 g NaH2PO4.H2O, 4.82 g Na2HPO4, 46.6 g NaCl, 20 g bovine albumin and 4 ml, 0.5M EDTA pH 8 in 2 L milliQ and adjusted to pH 7.0) at a concentration of 5 μg/mL. After 2 h of incubation at RT, plates are washed as described above and incubated with 50 μL/well streptavidin-HRP conjugate (Biosource). Streptavidin-HRP conjugate is diluted in buffer C at a concentration of 0.25 μg/mL. After 45 min, plates are washed as described above and incubated for 5 min with 50 μL/well BM Chem ELISA Substrate (Roche). Readout is performed on the Luminoscan Ascent Luminometer (Labsystems) with an integration time of 200 msec or with an Envision reader (Perkin Elmer).
SFs were acquired at passage 1 from a commercial supplier (Cell applications, Inc.). SFs are cultured in DMEM supplemented with 10% heat-inactivated FBS, 1× penicillin/streptomycin (Invitrogen) at 37° C., 10% CO2 until passage 6. Aliquots of the cells are frozen and cryopreserved in liquid nitrogen. Starting from a cryopreserved aliquot, cells are further expanded by sub-culturing cells at 1/3 ratio every week. Cells between passage 10 and 12 are routinely used in compound testing according to the following protocol.
Starting from the compound master stocks (all at 10 mM concentration in 100% DMSO) a 3-fold serial dilution is made in 96-well plates in 100% DMSO. Then, plates are further diluted 45-fold in M199 medium supplemented with 1% heat-inactivated FBS to obtain a intermediate work stock.
At day 1, RASFs are seeded in 96 well plates (flat bottom, tissue culture treated, Greiner) at a density of 3000 cells/well in complete synovial growth medium (Cell Applications). Day 5, the medium is completely removed from the cells, and replaced by 81 μL of M199 medium supplemented with 1% heat-inactivated FBS followed by addition of 10 μL compound out of the intermediate work stock. After an incubation period of 90 minutes, which allows the compounds to equilibrate and enter the cells, cells are stimulated with either TNF-α or ‘complex trigger’. TNF-α trigger is added in a volume of […] to obtain final concentration of 10 ng/mL. For that, TNF-α stock (PeproTech) at 10 μg/mL was diluted to 100 ng/mL TNF-α in M199 medium supplemented with 1% FBS. ‘Complex trigger’ mix is added in a volume of 20 μL to obtain a final concentration of 12.5%. For that, ‘complex trigger’ mix, is diluted to 80% with M199 medium supplemented with 1% FBS. […]

TAK1-TAB1 fusion protein = target: T1, TAK1-TAB1 fusion protein (Homo sapiens, UniProt O43318); test: In vitro TAK1 kinase assay (33P-ATP, casein substrate); assay type: biochemical; details: semi-quantitative score, at least two independent experiments
T1 construct: purchased Upstate 14-600
T1 sequence (O43318 with tags, fused parts or gaps limits assumed): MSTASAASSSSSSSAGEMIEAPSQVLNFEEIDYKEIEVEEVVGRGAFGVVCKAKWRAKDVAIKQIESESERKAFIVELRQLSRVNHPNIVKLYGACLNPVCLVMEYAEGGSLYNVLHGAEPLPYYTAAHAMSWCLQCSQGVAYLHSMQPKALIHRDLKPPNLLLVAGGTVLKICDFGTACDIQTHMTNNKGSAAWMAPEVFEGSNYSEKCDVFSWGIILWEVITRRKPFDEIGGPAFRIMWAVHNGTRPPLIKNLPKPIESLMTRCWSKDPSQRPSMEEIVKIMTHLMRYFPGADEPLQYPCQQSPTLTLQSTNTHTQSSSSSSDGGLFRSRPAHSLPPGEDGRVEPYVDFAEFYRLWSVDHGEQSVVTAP
Description: For assessing TAK1 inhibition, active TAK1-TAB1 fusion protein was used from Upstate (Cat. No, 14-600). Kinase reactions are set up in 96-well polypropylene plates in 25 μL containing 0.5 mU TAK1-TAB1 fusion protein, […], 0.01 μCi/μL [^33P]-γ-ATP, 0.1 mg/mL casein substrate in 1× reaction buffer containing 10 mM MOPS pH 7.0, 1 mM EDTA.
Starting from the compound master stocks (all at 10 mM concentration in 100% DMSO) a 3-fold serial dilution is made in 96-well plates in 100% DMSO. Plates are further diluted […] in H2O containing 3.5% DMSO, to obtain an intermediate work stock with compounds at 5× the final assay concentration in 5% DMSO.
5 μL of the intermediate stock is transferred into V-bottom 96 well polypropylene plates and 11 μL of Enzyme mix is added. Enzyme mix is made by combining 5 μL 5× reaction buffer ([…] pH 7.0, 1 mM EDTA), 5 μL casein (Sigma) diluted in H2O to 0.5 mg/mL and 1 μL of TAK1-TAB1 fusion protein that was prediluted to 0.5 mU/μL in 1× enzyme dilution buffer (20 mM MOPS pH 7.0, 0.1 mM EDTA, 0.01% Brij-35, 5% glycerol, 1 mM DTT, 1 mg/ml BSA).
The reactions are started by the addition of 9 μL of mixture containing ATP (20.83 uM) and [^33P]-γ-ATP (0.028 μCi/μL).
The assay is stopped 90 minutes after incubation at 30° C. by the addition of 25 μL phosphoric acid (150 mM). The label incorporated into the casein substrate is separated from labeled unincorporated ATP by filtration onto 96-well filter plates using a harvester device. After 6 washes with 75 mM phosphoric acid, the bottom of the filter plates are sealed, and incorporated label is quantified after addition of 40 μL scintillation fluid using TopCount.
Based on these percent inhibition data obtained in at least two independent experiments for the compounds, compounds are ranked using semi-quantitative scores. Table A below lists a number of compounds which have been or can be prepared according to the synthetic methods described herein. Semi-quantitative score: • *>3001 nM • ** 1001-3000 nM • *** 101-1000 nM • ****<100 nM

`NC(=O)c1ccc(-c2ccc(Nc3ccc(N4CCOCC4)cc3)c3nccn23)cc1` [Compound 1, 4-[8-(4-Morpholin-4-yl-phenylamino)-imidazo[1,2-a]pyridin-5-yl]-benzamide] showed a pEC50 [1] of 6.00 to 7.00 and a pIC50 (TAK1-TAB1 fusion protein) of 5.52 to 6.00.

For `c1cn2c(-c3cn[nH]c3)ccc(Nc3ccc(N4CCOCC4)cc3)c2n1` [Compound 2, (4-Morpholin-4-yl-phenyl)-[5-(1H-pyrazol-4-yl)-imidazo[1,2-a]pyridin-8-yl]-amine], the pEC50 [1] was 6.00 to 7.00 and the pIC50 (TAK1-TAB1 fusion protein) was 6.00 to 7.00.

With `CN1CCN(c2ccc(Nc3ccc(-c4ccc(C(N)=O)cc4)n4ccnc34)cc2)CC1` [Compound 3, 4-{8-[4-(4-Methyl-piperazin-1-yl)-phenylamino]-imidazo[1,2-a]pyridin-5-yl}-benzamide] the pEC50 [1] was > 7.00 and the pIC50 (TAK1-TAB1 fusion protein) was 6.00 to 7.00.

With `CN1CCN(c2ccc(Nc3ccc(-c4cn[nH]c4)n4ccnc34)cc2)CC1` [Compound 4, [4-(4-Methyl-piperazin-1-yl)-phenyl]-[5-(1H-pyrazol-4-yl)-imidazo[1,2-a]pyridin-8-yl]-amine] the pEC50 [1] was < 5.52 and the pIC50 (TAK1-TAB1 fusion protein) was 6.00 to 7.00.

Molecule `CC(C)N1CCN(c2ccc(Nc3ccc(-c4cn[nH]c4)n4ccnc34)cc2F)CC1` [Compound 5, [3-Fluoro-4-(4-isopropyl-piperazin-1-yl)-phenyl]-[5-(1H-pyrazol-4-yl)-imidazo[1,2-a]pyridin-8-yl]-amine] has a pEC50 [1] of 5.52 to 6.00 and a pIC50 (TAK1-TAB1 fusion protein) of 6.00 to 7.00.

`CC(C)N1CCN(c2ccc(Nc3ccc(-c4cn[nH]c4)n4ccnc34)cc2)CC1` [Compound 6, [4-(4-Isopropyl-piperazin-1-yl)-phenyl]-[5-(1H-pyrazol-4-yl)-imidazo[1,2-a]pyridin-8-yl]-amine] gave a pEC50 [1] of 6.00 to 7.00 and a pIC50 (TAK1-TAB1 fusion protein) of 6.00 to 7.00.

In the case of `CN1CCN(c2ccc(Nc3ccc(-c4cn[nH]c4)n4ccnc34)c(F)c2)CC1` [Compound 7, [2-Fluoro-4-(4-methyl-piperazin-1-yl)-phenyl]-[5-(1H-pyrazol-4-yl)-imidazo[1,2-a]pyridin-8-yl]amine], the pEC50 [1] was 6.00 to 7.00 and the pIC50 (TAK1-TAB1 fusion protein) was 6.00 to 7.00.

Molecule `CC(C)N1CCN(c2ccc(Nc3ccc(-c4csc(C(N)=O)c4)n4ccnc34)cc2)CC1` [Compound 8, 4-{8-[4-(4-Isopropyl-piperazin-1-yl)-phenylamino]-imidazo[1,2-a]pyridin-5-yl}-thiophene-2-carboxylic acid amide] has a pEC50 [1] of 6.00 to 7.00 and a pIC50 (TAK1-TAB1 fusion protein) of 6.00 to 7.00.

Work on `CC(C)N1CCN(c2ccc(Nc3ccc(-c4csc(C(N)=O)c4)n4ccnc34)cc2F)CC1` [Compound 9, 4-{8-[3-Fluoro-4-(4-isopropyl-piperazin-1-yl)-phenylamino]-imidazo[1,2-a]pyridin-5-yl}-thiophene-2-carboxylic acid amide] yielded a pEC50 [1] of 5.52 to 6.00 and a pIC50 (TAK1-TAB1 fusion protein) of 5.52 to 6.00.

Molecule `CC(C)N1CCN(c2ccc(Nc3ccc(-c4ccc(C(N)=O)cc4)n4ccnc34)cc2)CC1` [Compound 10, 4-{8-[4-(4-Isopropyl-piperazin-1-yl)-phenylamino]-imidazo[1,2-a]pyridin-5-yl}-benzamide] has a pEC50 [1] of 6.00 to 7.00 and a pIC50 (TAK1-TAB1 fusion protein) of 6.00 to 7.00.

`CC(C)N1CCN(c2ccc(Nc3ccc(-c4ccc(C(N)=O)cc4)n4ccnc34)cc2F)CC1` [Compound 11, 4-{8-[3-Fluoro-4-(4-isopropyl-piperazin-1-yl)-phenylamino]-imidazo[1,2-a]pyridin-5-yl}-benzamide] was tested, and the pEC50 [1] was < 5.52 and the pIC50 (TAK1-TAB1 fusion protein) was 6.00 to 7.00.

`CC(C)N1CCN(c2ccc(Nc3ccc(-c4ccc5c(c4)CNC5=O)n4ccnc34)cc2)CC1` [Compound 12, 5-{8-[4-(4-Isopropyl-piperazin-1-yl)-phenylamino]-imidazo[1,2-a]pyridin-5-yl}-2,3-dihydro-isoindol-1-one] was tested, and the pEC50 [1] was 6.00 to 7.00 and the pIC50 (TAK1-TAB1 fusion protein) was > 7.00.

In the case of `O=C1NCc2cc(-c3ccc(Nc4ccc(N5CCOCC5)cc4)c4nccn34)ccc21` [Compound 13, 5-(8-(4-morpholinophenyl-amino)imidazo [1,2-a]pyridin-5-yl)isoindolin-1-one], the pEC50 [1] was 5.52 to 6.00 and the pIC50 (TAK1-TAB1 fusion protein) was 6.00 to 7.00.

`CN(C)C(=O)c1ccc(Nc2ccc(-c3ccc4c(c3)CNC4=O)n3ccnc23)cc1` [Compound 14, N,N-dimethyl-4-(5-(1-oxoisoindolin-5-yl)imidazo[1,2-a]pyridin-8-ylamino)benzamide] was tested, and the pEC50 [1] was < 5.52 and the pIC50 (TAK1-TAB1 fusion protein) was 6.00 to 7.00.

For `O=C1NCc2cc(-c3ccc(Nc4ccc(C(=O)N5CCOCC5)cc4)c4nccn34)ccc21` [Compound 15, 5-(8-(4-(morpholine-4-carbonyl)phenyl-amino)imidazo[1,2-a]pyridin-5-yl)isoindolin-1-one], the pEC50 [1] was < 5.52 and the pIC50 (TAK1-TAB1 fusion protein) was 6.00 to 7.00.

With `O=C1NCc2cc(-c3ccc(Nc4ccc(S(=O)(=O)N5CCOCC5)cc4)c4nccn34)ccc21` [Compound 16, 5-(8-(4-(morpholinosulfonyl)phenylamino)imidazo[1,2-a]pyridin-5-yl)isoindolin-1-one] the pEC50 [1] was < 5.52 and the pIC50 (TAK1-TAB1 fusion protein) was 6.00 to 7.00.

`O=C(Nc1ccccc1)c1ccc(Nc2ccc(-c3ccc4c(c3)CNC4=O)n3ccnc23)cc1` [Compound 17, 4-(5-(1-oxoisoindolin-5-yl)imidazo[1,2-a]pyridin-8-ylamino)-N-phenylbenzamide] was tested, and the pEC50 [1] was < 5.52 and the pIC50 (TAK1-TAB1 fusion protein) was 5.52 to 6.00.
